Reference: US20260207626A1, “SYNTHETIC TRITERPENOIDS AND COMPOSITIONS THEREOF IN WEIGHT MANAGEMENT, SKELETAL MUSCLE FUNCTION, AND APPETITE SUPPRESSION” (The Board of Regents of the University of Texas System, priority 2022, published 2026)
Entries after “also recorded” stand apart in the source; their conditions may differ.

Columns and labels:
NF-κB = NF-κB luciferase reporter assay in L6-GLUT4myc myotubes; type: cell-based, rat; details: 500 nM CDDO-EA 1 hr then 100 ng/ml LPS 6 hours
Procedure: To determine the effects of CDDO-EA on LPS-induced NF-κB transcriptional activity in L6-GLUT4myc myotubes, a luciferase reporter under the control of a promoter containing NF-κB transcription binding sites was used.
Luciferase assay: L6-GLUT4myc myoblasts were transfected with 2 μg of phosphorylated NF-κB-MetLuc2-Reporter plasmid as described previously. After transfection, cells were plated onto a 24-well dish (1.5×10^5 cells/well) and pre-treated with CDDO-EA for 1 h. Myotubes were then stimulated with LPS 100 ng/ml (E. coli 0111: B4, Sigma Aldrich) for 6 h, and luciferase activity was measured using the Ready-To-Glow™ NF-κB Secreted Luciferase Reporter System as described.

[1] = Serum glucose and insulin, oral glucose tolerance test (OGTT) in mice fed LFD or HFD with or without CDDO-EA; type: in vivo, C57B16/J mice
Procedure: Data were statistically analyzed by One-Way ANOVA, Two-Way ANOVA with repeated measures, or Two-Way ANOVA with Tukey's multiple comparison test. Throughout the collection of blood samples, OGTTs, and measurement of bodyweight, mice were unrestrained and awake. Blood samples were collected via tail snip before start of experimental feeding and then every two weeks. Oral glucose tolerance tests (OGTTs) were performed after the six-week experimental feeding, and blood samples were collected via tail snip during the OGTT. For OGTT, mice were given 2 g of glucose/kg of body weight by gavage after a five hour fast (36). Glucose levels were measured using a glucometer (Contour), and insulin concentrations were measured using an ELISA (Mercodia). Mice were weighed once a week. Glucose and insulin serum levels were measured every two weeks.
Glucose and insulin levels were measured in the subject animals to determine if prevention of obesity by CDDO-EA in a high fat diet (HFD) chow regimen and in a low fat diet (LFD) regimen coincided with a reduction in hyperglycemia and hyperinsulinemia.

p38 = test: Western blot of p38 phosphorylation in L6-GLUT4myc myotubes; type: cell-based, rat; details: CDDO-EA treated myotubes vs control
Procedure: FIG. 16B. The protein p38 has been reported to be involved in insulin-independent glucose metabolism. FIG. 16B represents results from a study performed to illustrate that CDDO-EA activated phosphorylation of p38. Immunoblotting was performed to measure the protein content of phosphorylated p38 and total p38 protein. Protein content of actin is used as a control to confirm protein loading is the same across the lanes of the immunoblot. […] The first row of horizontal bands is the Control group (bands #1, #2, and #3) content of phosphorylated p38 (P-p38) with no CDDO-EA treatment.
Western blotting and subcellular fractionation: L6-GLUT4myc myoblasts (4×10^4 cells/ml, 2 ml/well) were seeded onto 6-well dishes and differentiated with differentiation medium for 7 days. […] Protein concentrations were determined using the Pierce BCA Protein Assay (Thermo Fisher Scientific), and equal amounts of protein were separated by electrophoresis and subsequently transferred to nitrocellulose membranes. Membranes were analyzed using the following antibodies from Cell Signaling Technology: phosphorylated NF-κB (Ser536) (93 H1, cat #3033,1:1000), phosphorylated IKB-α (Ser32) (14D4, cat #2859,1:1000), IKB-α (44D4, cat #4812, 1:1000), phosphorylated p38 (Thr180/Tyr182) (cat #9211, 1:1000), p38 (cat #9212, 1:1000). […] Bands were quantitated using ImageQuant (GE Healthcare). […]

MCP-1 = test: RT-PCR of PA-induced MCP-1 gene expression in L6-GLUT4myc myotubes; type: cell-based, rat; details: CDDO-EA 500 nM 1 h then PA 400 μM 6 h
Procedure: L6-GLUT4myc myotubes were pretreated with CDDO-EA (500 nM, 1 h) and treated PA (400 μM, 6 h). TNF-α and MCP-1 gene expression were measured by RT-PCR. Data are represented as +SEM *P<0.05 vs. control, ^#P<0.05 vs. control. * P<0.05 vs. LPS, $P<0.05 vs. PA. (One-Way ANOVA).

GLUT4 = test: Colorimetric assay of cell surface GLUT4 in L6GLUT4myc myotubes (preliminary data); type: cell-based, rat; details: FIG. 30
Procedure: Is CDDO-EA-mediated GLUT4 translocation dependent on AMPK activation? The catalytic subunit alpha-1 (α1) of AMPK will be KD by siRNA. Cells will be treated with CDDO-EA (500 nM, 1 hour), insulin ([…] for 15 min), or insulin and CDDO-EA to determine if there is a synergistic effect on GLUT4 translocation. Also, cells will be treated with the AMPK activator, 5-aminoimidazole-4-carboxamide ribonucleoside (AICAR, 1 mM, 40 minutes), as a positive control. We will use a colorimetric assay to quantitatively measure the levels of cell surface GLUT4 in 3T3-L1 adipocytes and L6GLUT4myc myotubes^37. […] GLUT4 translocation will be detected via immunofluorescence. Subcellular protein fractionation will be conducted to detect GLUT4 in the sarcolemma for myotubes and plasma membrane for adipocytes and GLUT2 in the plasma membrane of hepatocytes via Western blotting. GLUT2 will be measured in hepatocytes because GLUT2 is the most abundant glucose transporter in hepatocytes^38. To measure glucose uptake, a non-radioactive, plate-based bioluminescent assay (Glucose Uptake-Glo, Promega) will be performed. Using Glucose Uptake-Glo, insulin induces glucose uptake in L6GLUT4my myotubes. Phosphorylation of AMPK at Thr^172 and phosphorylation of ACC at Ser^79 indicates activation of the AMPK pathway. Thus, phosphorylation of AMPK Thr^172 and ACC Ser^79 will be shown through Western blotting. […]

## CCNC(=O)[C@]12CCC(C)(C)C[C@H]1C1C(=O)C=C3[C@@]4(C)C=C(C#N)C(=O)C(C)(C)[C@@H]4CC[C@@]3(C)[C@]1(C)CC2 (stereo partly drawn) [CDDO-EA, (4aS,6aR,6bS,8aR,12aS,14bS)-11-cyano-N-ethyl-2,2,6a,6b,9,9,12a-heptamethyl-10,14-dioxo-1,3,4,5,6,6a,6b, 7,8,8a,9,10,12a, 14,14a, 14b-hexadecahydropicene-4a (2H)-carboxamide]
NF-κB
  LPS-induced NF-κB transcriptional (luciferase) activity: prevented the promoter activity of NF-κB; also recorded: significantly inhibited the LPS-induced NF-κB activity; also recorded: blocks NF-κB transcriptional activity
[1]; HFD + CDDO-EA, after 6 weeks (FIG. 6B)
  OGTT serum glucose: prevented increased serum glucose; also recorded: significantly decrease to glucose levels before the HFD experimental feeding; also recorded: prevents glucose intolerance
[1]; HFD + CDDO-EA, after 6 weeks (FIG. 7B)
  OGTT serum insulin: prevented increased serum glucose (FIG. 6B) and insulin concentrations; also recorded: insulin levels did not increase significantly; also recorded: prevents hyperinsulinemia
[1]; HFD with CDDO-EA, weeks 0-6 (FIG. 13A)
  serum glucose levels during feeding: did not increase throughout the six-week feeding; also recorded: prevents glucose intolerance
[1]; HFD with CDDO-EA, weeks 0-6 (FIG. 13B)
  serum insulin levels during feeding: remained significantly higher in mice fed only a HFD compared to mice fed a HFD with CDDO-EA; also recorded: prevents hyperinsulinemia
[1]; LFD + CDDO-EA, after 6 weeks (FIG. 6A)
  serum glucose levels: no significant increase or decrease in serum glucose levels; also recorded: did not affect glucose and insulin levels of mice fed LFD with CDDO-EA
[1]; LFD + CDDO-EA, after 6 weeks (FIG. 7A)
  insulin levels: overlap with the insulin levels before experimental feeding; also recorded: did not affect glucose and insulin levels of mice fed LFD with CDDO-EA
p38
  p38 phosphorylation (normalized to total p38, percent over control): effective for inducing p38 phosphorylation; also recorded: two-fold increase in activation of p38 phosphorylation; also recorded: activates GLUT4 translocation to cell membrane and p38 phosphorylation
  total p38 protein expression: had no effect on p38 protein expression
MCP-1
  PA-induced MCP-1 gene expression: inhibits PA-induced NF-κB activation and MCP-1 and TNF-α gene expression; also recorded: blocks TNF-α and MCP-1 gene expression
GLUT4
  GLUT4 translocation to the cell surface (colorimetry assay): induce GLUT4 translocation to the cell surface
